Test results taken from PMC9102502, “The Influence of Selected Antipsychotic Drugs on Biochemical Aspects of Alzheimer’s Disease” (International Journal of Molecular Sciences, 2022).
Read-outs that look alike come from different tables or passages of the source.

Key:
BuChE [1] = details: read-out: IC50 BuChE, cited from earlier work
AChE [2] = details: read-out: IC50 AChE, cited from earlier work
BuChE [3] = target: T1, BuChE (Homo sapiens, UniProt P06276); assay: Kinetic parameters of enzymatic reaction (Hanes–Woolf), BuChE; format: biochemical; set-up: The solution of plasma 200-fold diluted with 0.9% NaCl; from tissue; host or cells: citrated plasma from blood of healthy human donors
T1 sequence (P06276 29-602): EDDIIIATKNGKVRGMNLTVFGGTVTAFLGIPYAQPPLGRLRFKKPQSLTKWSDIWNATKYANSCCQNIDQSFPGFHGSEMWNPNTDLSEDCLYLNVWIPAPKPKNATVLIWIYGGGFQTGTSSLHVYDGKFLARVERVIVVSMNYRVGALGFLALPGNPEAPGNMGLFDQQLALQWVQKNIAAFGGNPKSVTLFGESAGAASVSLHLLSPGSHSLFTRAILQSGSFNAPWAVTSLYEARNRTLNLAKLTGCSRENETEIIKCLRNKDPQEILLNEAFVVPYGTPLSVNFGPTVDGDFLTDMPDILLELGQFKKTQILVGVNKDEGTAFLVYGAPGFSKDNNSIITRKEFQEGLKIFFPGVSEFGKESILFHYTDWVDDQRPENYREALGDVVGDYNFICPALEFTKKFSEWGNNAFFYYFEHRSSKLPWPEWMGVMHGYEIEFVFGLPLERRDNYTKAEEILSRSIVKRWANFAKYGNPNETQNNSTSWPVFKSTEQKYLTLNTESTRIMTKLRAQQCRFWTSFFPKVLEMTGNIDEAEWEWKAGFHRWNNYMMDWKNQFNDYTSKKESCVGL
Experimental: Kinetic parameters were obtained on the basis of three individual experiments carried out on different biological materials. For this purpose, various concentrations of substrates (ATC and BTC) were used in experiments. The type of inhibition and kinetic parameters of enzymatic reactions were obtained by linear regression using the Hanes–Woolf equations.
(§1) AChE SI (selectivity index) was calculated by using the following formula: SI = IC50 of BuChE/IC50 of AChE. However, BuChE SI was defined as IC50 of AChE/IC50 of BuChE. Maximal velocity (Vmax) and the Michaelis constant (Km) were calculated with the use of linear regression—according to the Hanes–Woolf plot.

[4] = target: T2, human erythrocyte acetylcholinesterase (Homo sapiens, UniProt P22303); assay: AChE inhibition, modified Ellman's method; format: biochemical; details: control 0.258 ± 0.016 A/min
T2 construct: solution of hemolyzed erythrocytes diluted 400-fold; from tissue; host or cells: hemolyzed erythrocytes from blood of healthy human donors
T2 sequence (P22303 32-617 isoform P22303-2 limits assumed): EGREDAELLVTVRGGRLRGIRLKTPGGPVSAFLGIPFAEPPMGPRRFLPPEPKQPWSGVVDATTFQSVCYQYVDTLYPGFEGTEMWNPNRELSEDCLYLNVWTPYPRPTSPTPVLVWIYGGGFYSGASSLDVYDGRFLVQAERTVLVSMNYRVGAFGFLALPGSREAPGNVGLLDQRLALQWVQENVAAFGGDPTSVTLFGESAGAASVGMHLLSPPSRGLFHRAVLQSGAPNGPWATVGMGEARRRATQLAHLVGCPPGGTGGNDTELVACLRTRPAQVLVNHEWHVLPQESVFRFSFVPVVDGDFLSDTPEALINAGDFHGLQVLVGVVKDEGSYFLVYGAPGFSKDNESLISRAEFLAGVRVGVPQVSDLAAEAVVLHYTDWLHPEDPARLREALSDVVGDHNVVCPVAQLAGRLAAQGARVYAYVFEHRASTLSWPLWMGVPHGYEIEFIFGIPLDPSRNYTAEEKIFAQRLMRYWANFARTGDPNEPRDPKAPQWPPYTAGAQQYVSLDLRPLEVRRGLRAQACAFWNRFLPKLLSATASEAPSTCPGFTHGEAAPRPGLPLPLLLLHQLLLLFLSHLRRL
Experimental: (§2) The activity of both cholinesterases (AChE and BuChE) were assessed spectrophotometrically according to the Ellman’s method with some modifications by Worek et al.. This test development included experimental determination of the optimal testing conditions. For all measurements, 37 °C was used as the best temperature for enzymatic determinations in material of human origin.
(§3) The solution of plasma 200-fold diluted with 0.9% NaCl and solution of hemolyzed erythrocytes diluted 400-fold with 0.9% were incubated (37 °C, 15 min) with 5 μL DTNB (0.01 mol/L) and 10 μL tested compound at a wider range of concentration than the therapeutic range in order to assess the overall effect of the compound on human esterases (AChE and BuChE). The controls without antipsychotics, containing only DTNB and diluted plasma or diluted solution of hemolyzed erythrocytes, were prepared. […] The final volume of a sample was 500 μL. […] The maximal velocity of the reaction was determined on the basis of changes in absorbance over time.
as §1

[5] = target: T3, human plasma butyrylcholinesterase (Homo sapiens, UniProt P06276); assay: BuChE inhibition, modified Ellman's method; format: biochemical; details: control 0.302 ± 0.029 A/min
T3 construct: The solution of plasma 200-fold diluted with 0.9% NaCl; from tissue; host or cells: citrated plasma from blood of healthy human donors
T3 sequence (P06276 29-602): as the sequence (P06276 29-602) above
Experimental: as §2, §3, §1

[6] = target: T4, recombinant human β-amyloid (1–42) (Homo sapiens, UniProt P05067); assay: Beta-amyloid aggregation, Thioflavin T fluorescence; format: biochemical; details: 10 μg/L; time range from 10 min to 24 h incubation
T4 construct: recombinant human β-amyloid (1–42; ultrapure); purchased Sigma-Aldrich (St. Louis, MO, USA)
T4 sequence (P05067 672-713 limits assumed): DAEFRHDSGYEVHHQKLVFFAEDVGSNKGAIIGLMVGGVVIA
Experimental: Aβ42 peptide was dissolved in DMSO and left to hydrate for a few minutes. The solution was centrifuged at 10,000 rpm for 5 min at 4 °C to separate any precipitated material. The solution at a concentration of 220 μmol/L was stored in small aliquots at a temperature of −30 °C and before each experiment it was restored at 37 °C for 15 min. Test samples containing Aβ42 solution at the final concentration of 20 μmol/L was incubated with antipsychotics at concentrations equaling their TPC and 1/2 × TPC (v = 10 µL). The final volume of the test samples was 100 μL. The positive control constituted a sample of Aβ42 peptide, whereas the negative control contained tannic acid at the final concentrations of 0.1 µmol/L and 10 µmol/L. The fibrillation reaction was set up by addition of thioflavin ThT dye at a concentration of 5 µmol/L. The fluorescence intensity was measured at room temperature with Ex/Em = 440 nm/484 nm (Synergy H1; BioTek, Winooski, VT, USA). The measurements of fluorescence intensity expressed as relative fluorescence units (RFU) were taken at 10, 30, 60 and 90 min and then after 24 and 48 h. The fluorescence intensity measured for control equaled 100% of Aβ aggregation and it was used to estimate the inhibitory properties of the tested antipsychotics.

HUVEC cells = assay: WST-1 viability under AAPH-induced oxidative stress, HUVEC; format: cell-based, human; details: ½ × TPC (bromperidol 12.5 μg/L, quetiapine 200 μg/L); AAPH 17.5 mmol/L; relative to pure medium control
Experimental: (§4) WST-1 assay (Takara, Takara Bio Europe, Saint-Germain-en-Laye, France) was used to assess the effects of antipsychotics on the growth of HUVEC and astrocytes. The experiments were conducted as described previously. HUVEC were seeded at a density of 7500 cells, and astrocytes at 5000 cells per well on 96-well microplates and cultured for 24 h followed by treatment with compounds at ½ × TPCmax and TPCmax or pure medium as a control (v = 100 μL) for another 24 h (37 °C, 5% CO2). Subsequently, the cells were washed with culture medium (100 μL) and WST-1 reagent diluted in medium (10 μL of reagent + 90 μL of medium) was added. The plates were incubated at 37 °C in 5% CO2 for another 90 min for HUVEC and 60 min for astrocytes. The absorbance was read at 450 nm using a microplate reader (iMARK, Bio-Rad, Hercules, CA, USA). The cells viability was expressed as a percentage of the control samples which constituted 100% viability.
(§5) Moreover, the WST-1 assay was used to evaluate potential protective effects of antipsychotics on the growth of HUVEC and astrocytes under conditions of AAPH-induced oxidative stress. The experimental conditions were the same as in viability studies. AA at the final concentration of 10 μg/mL was used as an antioxidant control. After reaching the confluence, the antipsychotics were added at concentrations equaling ½ × TPCmax and TPCmax. After 1 h incubation under standard conditions, 50 μL AAPH was added to the wells containing tested compounds or AA. The AAPH concentration was chosen on the basis of preliminary experiments—17.5 mmol/L in HUVEC experiments, and 15.0 mmol/L in the case of astrocytes.

astrocytes = assay: WST-1 viability under AAPH-induced oxidative stress, astrocytes; format: cell-based, human
Experimental: as §4, §5

AChE [7] = target: AChE (Homo sapiens, UniProt P22303); assay: Synergism of antipsychotics with donepezil/rivastigmine (binary mixtures), AChE; details: ComboSyn;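 note: antipsychotic concentration kept fixed across all measurements, selected from estimated therapeutic plasma levels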
Chain of AChE (P22303 32-617 isoform P22303-2 limits assumed): as the sequence (P22303 32-617 isoform P22303-2 limits assumed) above

BuChE [8] = target: T1, BuChE; assay: Synergism of antipsychotics with donepezil/rivastigmine (binary mixtures), BuChE; details: ComboSyn;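 note: combination index derived by median-effect analysis of combined drug effects on the cholinesterase, with values below 1 meaning synergism, exactly 1 additivity and above 1 antagonism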
[9] = reference values according to the literature ref 28
[10] = reference values according to the literature ref 31
[11] = reference values according to the literature ref 32
[12] = reference values according to the literature ref 33
[13] = rivastigmine 5 μmol/L + antipsychotic at TPCmax

Question: What does the source list for `COc1cc2c(cc1OC)C(=O)C(CC1CCN(Cc3ccccc3)CC1)C2` (centres unmarked) [Donepezil, donepezil]?
Answer: IC50 (BuChE [1]; reference values according to the literature ref 29): […]; IC50 (BuChE [1]; reference values according to the literature ref 30): […]

Question: Which IC50 (AChE [2]; [9]) does the source give for `CCN(C)C(=O)Oc1cccc([C@H](C)N(C)C)c1` [Rivastigmine, rivastigmine] here?
Answer: The IC50 was […].

Question: And the IC50 (AChE [2]; [10])?
Answer: The IC50 was […].

Question: And the IC50 (AChE [2]; [11])?
Answer: The IC50 was […].

Question: And the IC50 (AChE [2]; [12])?
Answer: Its IC50 is […].

Question: What about the IC50 (BuChE [1]; [9]) of the same compound?
Answer: The IC50 was […].

Question: What about the IC50 (BuChE [1]; [10]) of the same compound?
Answer: The IC50 was […].

Question: And the IC50 (BuChE [1]; [11])?
Answer: Its IC50 is […].

Question: And the “Vmax(i) BuChE” value (BuChE [3]; compound at its IC50)?
Answer: The value was 0.122 ± 0.003 A/min.

Question: What about the “type of inhibition of BuChE” value (BuChE [3]; from Km(i), Vmax(i) vs Km, Vmax, mixed inhibition) of the same compound?
Answer: Its value is “noncompetitively”.

Question: For `O=C(CCCN1CCC(n2c(O)nc3ccccc32)CC1)c1ccc(F)cc1` [Benperidol, benperidol], which AChE reaction velocity ([4]; 75 µg/L) is on record?
Answer: The AChE reaction velocity was 0.250 ± 0.015 A/min.

Question: And the AChE reaction velocity ([4]; 100 µg/L)?
Answer: The AChE reaction velocity was 0.239 ± 0.014 A/min.

Question: And the BuChE reaction velocity ([5]; 75 µg/L)?
Answer: Its BuChE reaction velocity is 0.283 ± 0.029 A/min.

Question: What about the BuChE reaction velocity ([5]; 100 µg/L) of the same compound?
Answer: Its BuChE reaction velocity is 0.279 ± 0.021 A/min.

Question: And the “inhibition of Aβ” value [6]?
Answer: The value was 42.1–53.3%.

Question: And the “viability of HUVEC under AAPH” value (HUVEC cells)?
Answer: Its value is 82.9%.

Question: And the “astrocyte viability compared with the control (pure AAPH)” value (astrocytes; benperidol 5 and 10 μg/L, penfluridol 12.5 μg/L, pimozide 15 μg/L, promazine 25 and 50 μg/L)?
Answer: Its value is “statistically significant increase”.

Question: And the “astrocyte viability under AAPH” value (astrocytes; ½ × TPC (benperidol 5 μg/L, bromperidol 12.5 μg/L), AAPH 15 mmol/L)?
Answer: Its value is 81.9%.

Question: What about the “CI (combination index), AChE” value (AChE [7]; donepezil 0.005 μmol/L + antipsychotic at TPCmax, CI < 1 synergism, > 1 antagonism) of the same compound?
Answer: Its value is 0.83.

Question: And the “CI (combination index), AChE” value (AChE [7]; donepezil 0.01 μmol/L + antipsychotic at TPCmax)?
Answer: Its value is 1.09.

Question: And the “CI (combination index), AChE” value (AChE [7]; donepezil 0.02 μmol/L + antipsychotic at TPCmax)?
Answer: Its value is 1.04.

Question: What about the “CI (combination index), AChE” value (AChE [7]; donepezil 0.05 μmol/L + antipsychotic at TPCmax) of the same compound?
Answer: The value was 1.02.

Question: What about the “CI (combination index), AChE” value (AChE [7]; donepezil 0.1 μmol/L + antipsychotic at TPCmax) of the same compound?
Answer: The value was 1.24.

Question: What about the “CI (combination index), AChE” value (AChE [7]; [13]) of the same compound?
Answer: The value was 0.31.

Question: What about the “CI (combination index), AChE” value (AChE [7]; rivastigmine 10 μmol/L + antipsychotic at TPCmax) of the same compound?
Answer: Its value is 0.44.

Question: What about the “CI (combination index), AChE” value (AChE [7]; rivastigmine 15 μmol/L + antipsychotic at TPCmax) of the same compound?
Answer: The value was 0.48.

Question: And the “CI (combination index), AChE” value (AChE [7]; rivastigmine 25 μmol/L + antipsychotic at TPCmax)?
Answer: The value was 0.57.

Question: What about the “CI (combination index), AChE” value (AChE [7]; rivastigmine 40 μmol/L + antipsychotic at TPCmax) of the same compound?
Answer: The value was 0.62.

Question: And the “CI (combination index), AChE” value (AChE [7]; rivastigmine 50 μmol/L + antipsychotic at TPCmax)?
Answer: Its value is 0.63.

Question: And the “CI (combination index), AChE” value (AChE [7]; rivastigmine 75 μmol/L + antipsychotic at TPCmax)?
Answer: Its value is 0.66.

Question: What about the “CI (combination index), AChE” value (AChE [7]; rivastigmine 100 μmol/L + antipsychotic at TPCmax) of the same compound?
Answer: The value was 0.65.

Question: And the “CI (combination index), BuChE” value (BuChE [8]; donepezil 2 μmol/L + antipsychotic at TPCmax)?
Answer: Its value is 0.40.

Question: And the “CI (combination index), BuChE” value (BuChE [8]; donepezil 5 μmol/L + antipsychotic at TPCmax)?
Answer: The value was 0.50.

Question: What about the “CI (combination index), BuChE” value (BuChE [8]; donepezil 10 μmol/L + antipsychotic at TPCmax) of the same compound?
Answer: Its value is 0.57.

Question: And the “CI (combination index), BuChE” value (BuChE [8]; donepezil 20 μmol/L + antipsychotic at TPCmax)?
Answer: The value was 0.60.

Question: And the “CI (combination index), BuChE” value (BuChE [8]; donepezil 50 μmol/L + antipsychotic at TPCmax)?
Answer: The value was 0.69.

Question: What about the “CI (combination index), BuChE” value (BuChE [8]; donepezil 100 μmol/L + antipsychotic at TPCmax) of the same compound?
Answer: The value was 0.84.

Question: And the “CI (combination index), BuChE” value (BuChE [8]; rivastigmine 0.05 μmol/L + antipsychotic at TPCmax)?
Answer: Its value is 0.27.

Question: What about the “CI (combination index), BuChE” value (BuChE [8]; rivastigmine 0.1 μmol/L + antipsychotic at TPCmax) of the same compound?
Answer: Its value is 0.32.

Question: And the “CI (combination index), BuChE” value (BuChE [8]; rivastigmine 0.25 μmol/L + antipsychotic at TPCmax)?
Answer: Its value is 0.56.

Question: What about the “CI (combination index), BuChE” value (BuChE [8]; rivastigmine 0.5 μmol/L + antipsychotic at TPCmax) of the same compound?
Answer: The value was 0.91.

Question: And the “CI (combination index), BuChE” value (BuChE [8]; rivastigmine 0.75 μmol/L + antipsychotic at TPCmax)?
Answer: Its value is 0.95.

Question: And the “CI (combination index), BuChE” value (BuChE [8]; rivastigmine 1 μmol/L + antipsychotic at TPCmax)?
Answer: Its value is 1.00.

Question: And the “CI (combination index), BuChE” value (BuChE [8]; rivastigmine 2.5 μmol/L + antipsychotic at TPCmax)?
Answer: Its value is 1.08.

Question: And the “CI (combination index), BuChE” value (BuChE [8]; [13])?
Answer: The value was 1.00.
